Results published in patent US20050101595A1, “N-containing cycloalkyl-substituted amino-thiazole derivatives and pharmaceutical compositions for inhibiting cell proliferation and methods for their use” (PFIZER INC., priority 2003, published 2005).
Structures can show the parent of a compound that is named as a salt. Where two headings read alike, the source gives them in different places.

Experiments:
[1] = tested on: HCT-116 cell line; assay: Inhibition of cell growth, tetrazolium salt (MTT) assay; type: cell-based; settings: for IC50: Homo sapiens, HCT-116, 120 h, MTT, three to five days, read-out: HCT-116 IC50; for HCT-116 % Inhibition at 0.25 μM: 0.25 μM compound
Summary of the method: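 Growth inhibition by MTT reduction at 540 nm (0.2 mg/mL, 4 h at 37° C, formazan dissolved in DMSO), normalized to cells given only 0.5% v/v DMSO. HCT-116 cultures in McCoy's 5A were dosed 4 h post-plating and kept three to five days at 37° C, 5% CO2.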

[2] = biological target: human CDK4 and genetically truncated (1-264) cyclin D3 (Homo sapiens, UniProt P11802); assay: Inhibition of CDK4/Cyclin D Retinoblastoma Kinase Activity; type: biochemical; settings: for Ki: apparent Ki, CDK4/truncated cyclin D3, Rb fragment substrate, 25 μM ATP
Method: Cyclin-dependent kinase activity was measured by quantifying the enzyme-catalyzed, time-dependent incorporation of radioactive phosphate from [^32P]ATP or [^33P]ATP into a protein substrate. Unless noted otherwise, assays were performed in 96-well plates in a total volume of 50 μL, in the presence of 10 mM HEPES (N-[2-hydroxyethyl]piperazine-N′-[2-ethanesulfonic acid]) (pH 7.4), 10 mM MgCl2, 25 μM adenosine triphosphate (ATP), 1 mg/mL ovalbumin, 5 μg/mL leupeptin, 1 mM dithiothreitol, 10 mM β-glycerophosphate, 0.1 mM sodium vanadate, 1 mM sodium fluoride, 2.5 mM ethylene glycol-bis(β-aminoethyl ether)-N,N,N′N′-tetraacetic acid (EGTA), 2% (v/v) dimethylsulfoxide, and 0.03-0.4 μCi [^32/33P]ATP per reaction. Reactions were initiated with enzyme, incubated at 30° C., and terminated after 20 minutes by the addition of ethylenediaminetetraacetic acid (EDTA) to 250 mM. The phosphorylated substrate was then captured on a nitrocellulose or phosphocellulose membrane using a 96-well filtration manifold, and unincorporated radioactivity was removed by repeated washing with 0.85% phosphoric acid. Radioactivity was quantified by exposing the dried membranes to a phosphorimager.
Inhibition was measured relative to control wells that contained all reaction components including 2% (v/v) DMSO but no compound, after subtraction of background radioactivity measured in the absence of enzyme. Apparent Ki values of discrete compounds were measured by assaying enzyme activity in the presence of different inhibitor compound concentrations and subtracting the background radioactivity measured in the absence of enzyme. The kinetic parameters (kcat, Km for ATP) were measured for each enzyme under the usual assay conditions by determining the dependence of initial rates on ATP concentration. Inhibition data were fit to an equation for competitive inhibition using Kaleidagraph (Synergy Software), or were fit to an equation for competitive tight-binding inhibition using the software KineTic (BioKin, Ltd.).
Inhibition of CDK4/Cyclin D Retinoblastoma Kinase Activity:
A complex of human CDK4 and genetically truncated (1-264) cyclin D3 was purified using traditional biochemical chromatographic techniques from insect cells that had been co-infected with the corresponding baculovirus expression vectors (see e.g., Meijer and Kim, “Chemical Inhibitors of Cyclin-Dependent Kinases,” Methods in Enzymol,. vol. 283 (1997), pp. 113-128.). The enzyme complex (5 nM) was assayed with 0.3-0.5 μg of purified recombinant retinoblastoma protein fragment (Rb) as a substrate. The engineered Rb fragment (residues 386-928 of the native retinoblastoma protein; 62.3 kDa) contains the majority of the phosphorylation sites found in the native 106-kDa protein, as well as a tag of six histidine residues for ease of purification. Phosphorylated Rb substrate was captured by microfiltration on a nitrocellulose membrane and quantified using a phosphorimager as described above. For measurement of tight-binding inhibitors, the assay duration was extended to 60 minutes, during which the time-dependence of product formation was linear and initial rate conditions were met.

[3] = biological target: CDK2/Cyclin A (Homo sapiens, UniProt P24941); assay: Inhibition of CDK2/Cyclin A Retinoblastoma Kinase Activity; type: biochemical; settings: for Ki: apparent Ki, CDK2/proteolyzed cyclin A, Rb fragment substrate, 25 μM ATP; for CDK2 % Inhibition At 0.03 μM: Table 2
Summary of the method: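 CDK2 (10 or 19 nM), insect-cell expressed, gel-filtration purified with truncated cyclin A; Rb fragment substrate; 25 μM ATP; 10 mM HEPES pH 7.4, 10 mM MgCl2; 30° C, 60 or 75 min; EDTA stop; phosphocellulose/nitrocellulose capture, phosphorimager. % inhibition vs DMSO control, no-enzyme background subtracted.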

[4] = 0.1 μM compound, HCT-116, Table 4

Chain of human CDK4 and genetically truncated (1-264) cyclin D3 (P11802 whole entry, the tested form may be a part): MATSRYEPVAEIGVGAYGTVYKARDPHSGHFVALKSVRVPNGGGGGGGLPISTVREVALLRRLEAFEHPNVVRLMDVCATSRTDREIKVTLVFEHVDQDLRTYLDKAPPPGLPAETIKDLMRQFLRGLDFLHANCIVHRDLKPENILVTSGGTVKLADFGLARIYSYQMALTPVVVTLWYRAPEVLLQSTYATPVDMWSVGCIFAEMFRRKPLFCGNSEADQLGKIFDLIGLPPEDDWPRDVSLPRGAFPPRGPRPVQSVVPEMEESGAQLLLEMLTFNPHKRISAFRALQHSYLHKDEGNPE
Chain of human CDK4 and genetically truncated (1-264) cyclin D3 (P30281 1-264 partner): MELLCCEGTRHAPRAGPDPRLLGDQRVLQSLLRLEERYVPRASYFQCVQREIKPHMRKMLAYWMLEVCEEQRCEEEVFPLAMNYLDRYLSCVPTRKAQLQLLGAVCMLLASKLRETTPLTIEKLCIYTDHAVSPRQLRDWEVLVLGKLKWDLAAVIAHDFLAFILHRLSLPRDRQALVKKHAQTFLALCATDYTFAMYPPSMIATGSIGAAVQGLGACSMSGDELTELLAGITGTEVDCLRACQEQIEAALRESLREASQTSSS

Structure (SMILES) | IC50 ([1]; first HCT-116 column (c4)) [nM] | IC50 ([1]; second HCT-116 column (c5)) [nM] | Ki [2] [nM] | Ki [3] [nM] | CDK4 % Inhibition at 0.03 μM ([2]; at 0.03 μM) [%] | CDK2 % Inhibition at 0.03 μM ([3]; at 0.03 μM) [%] | HCT-116 % Inhibition at 0.1 μM ([1]; HCT-116 cells, at 0.1 μM) [%] | HCT-116 5 Inhibition at 0.25 μM ([1]; HCT-116 cells) | also measured
Cc1nccn1-c1ccc(S(=O)(=O)N2CCC(Nc3nc(N)c(C(=O)c4c(F)cccc4F)s3)CC2)cn1 [Example G26, 1-(4-Amino-2-{1-[6-(2-methyl-imidazol-1-yl)-pyridine-3-sulfonyl]-piperidin-4-ylamino}-thiazol-5-yl)-1-(2,6-difluoro-phenyl)-methanone] | 140 | 220 | 1.3 | 0.64 | – | – | – | – | –
Nc1nc(NC2CCN(S(=O)(=O)CCN3CCCC3)CC2)sc1C(=O)c1c(F)cccc1F [Example K35, 1-{4-Amino-2-[1-(2-pyrrolidin-1-yl-ethanesulfonyl)-piperidin-4-ylamino]-thiazol-5-yl}-1-(2,6-difluoro-phenyl)-methanone.] | 140 | 450 | 1.1 | 3 | – | – | – | – | –
Nc1nc(NC2CCN(C(=O)OCC3c4ccccc4-c4ccccc43)CC2)sc1C(=O)c1c(F)cccc1F [Example Q82] | – | – | – | – | – | – | – | – | HCT-116 % Inhibition at 0.1 μM [1, 4]: 0%; HCT-116 % Inhibition at 0.25 μM ([1]; HCT-116, Table 4): 28%; CDK4 % Inhibition at 0.03 μM ([2]; 0.03 μM compound, Table 4): 15%; CDK2 % Inhibition at 0.03 μM ([3]; 0.03 μM compound, Table 4): −12%
CN1CC[C@H](Oc2ccc(S(=O)(=O)N3CCC(Nc4nc(N)c(C(=O)c5c(F)cccc5F)s4)CC3)cn2)C1 [Example H28, (4-Amino-2-{1-[6-(1-methyl-pyrrolidin-3S-yloxy)-pyridine-3-sulfonyl]-piperidin-4-ylamino}-thiazol-5-yl)-(2,6-difluoro-phenyl)-methanone Hydrochloride] | 49 | 160 | 1 | 0.41 | – | – | – | – | –
Nc1nc(NC2CCN(C(=O)Nc3cccc4ccccc34)CC2)sc1C(=O)c1c(F)cccc1F [Example O35] | – | – | – | – | – | – | – | – | HCT-116 % Inhibition at 0.25 μM ([1]; HCT-116, Table 2): 0%; CDK4 % Inhibition at 0.03 μM ([2]; 0.03 μM compound, Table 2): 5%; CDK2 % Inhibition At 0.03 μM ([3]; 0.03 μM compound): 29%
COc1ccccc1C(=O)N1CCC(Nc2nc(N)c(C(=O)c3c(F)cccc3F)s2)CC1 [Example Q15] | – | – | – | – | – | – | – | – | HCT-116 % Inhibition at 0.1 μM [1, 4]: 9%; HCT-116 % Inhibition at 0.25 μM ([1]; HCT-116, Table 4): 45%; CDK4 % Inhibition at 0.03 μM ([2]; 0.03 μM compound, Table 4): 52%; CDK2 % Inhibition at 0.03 μM ([3]; 0.03 μM compound, Table 4): 25%
Cn1nc(-c2ccc(S(=O)(=O)N3CCC(Nc4nc(N)c(C(=O)c5c(F)cccc5F)s4)CC3)s2)cc1C(F)(F)F [Example P44] | – | – | – | – | – | – | – | – | HCT-116 % Inhibition at 0.1 μM ([1]; 0.1 μM compound, HCT-116, Table 3): 0%; HCT-116 % Inhibition at 0.25 μM ([1]; HCT-116, Table 3): 25%; CDK4 % Inhibition at 0.03 μM ([2]; 0.03 μM compound, Table 3): 62%; CDK2 % Inhibition at 0.03 μM ([3]; 0.03 μM compound, Table 3): 55%
Cc1cn(-c2ccc(S(=O)(=O)N3CCC(Nc4nc(N)c(C(=O)c5c(F)cccc5F)s4)CC3)cn2)cn1 [Example G27, 1-(4-Amino-2-{1-[6-(4-methyl-imidazol-1-yl)-pyridine-3-sulfonyl]-piperidin-4-ylamino}-thiazol-5-yl)-1-(2,6-difluoro-phenyl)-methanone Hydrochloride] | 57 | 250 | < 1 | 0.41 | – | – | – | – | –
Nc1nc(NC2CCN(C(=O)c3cccc(Cl)c3)CC2)sc1C(=O)c1c(F)cccc1F [Example Q19] | – | – | – | – | – | – | – | – | HCT-116 % Inhibition at 0.1 μM [1, 4]: 32%; HCT-116 % Inhibition at 0.25 μM ([1]; HCT-116, Table 4): 83%; CDK4 % Inhibition at 0.03 μM ([2]; 0.03 μM compound, Table 4): 59%; CDK2 % Inhibition at 0.03 μM ([3]; 0.03 μM compound, Table 4): 21%
Nc1nc(NC2CCN(C(=O)C3CCCC3)CC2)sc1C(=O)c1c(F)cccc1F [Example Q57] | – | – | – | – | – | – | – | – | HCT-116 % Inhibition at 0.1 μM [1, 4]: 0%; HCT-116 % Inhibition at 0.25 μM ([1]; HCT-116, Table 4): 32%; CDK4 % Inhibition at 0.03 μM ([2]; 0.03 μM compound, Table 4): 40%; CDK2 % Inhibition at 0.03 μM ([3]; 0.03 μM compound, Table 4): 32%
CS(=O)(=O)c1ccc(S(=O)(=O)N2CCC(Nc3nc(N)c(C(=O)c4c(F)cccc4F)s3)CC2)cc1 [Example F12, 1-{4-Amino-2-[1-(4-methanesulfonyl-benzenesulfonyl)-piperidin-4-ylamino]-thiazol-5-yl}-1-(2,6-difluoro-phenyl)-methanone] | 190 | 500 | 1.3 | 0.37 | – | – | – | – | –
CC(=O)c1ccc(NC(=O)N2CCC(Nc3nc(N)c(C(=O)c4c(F)cccc4F)s3)CC2)cc1 [Example O53] | – | – | – | – | – | – | – | – | HCT-116 % Inhibition at 0.25 μM ([1]; HCT-116, Table 2): 41%; CDK4 % Inhibition at 0.03 μM ([2]; 0.03 μM compound, Table 2): 11%; CDK2 % Inhibition At 0.03 μM ([3]; 0.03 μM compound): 30%
Nc1nc(NC2CCN(C(=O)c3cccc(C(F)(F)F)c3)CC2)sc1C(=O)c1c(F)cccc1F [Example Q24] | – | – | – | – | – | – | – | – | HCT-116 % Inhibition at 0.1 μM [1, 4]: 36%; HCT-116 % Inhibition at 0.25 μM ([1]; HCT-116, Table 4): 71%; CDK4 % Inhibition at 0.03 μM ([2]; 0.03 μM compound, Table 4): 65%; CDK2 % Inhibition at 0.03 μM ([3]; 0.03 μM compound, Table 4): 31%
Nc1nc(NC2CCN(C(=O)CCN3CCCCC3)CC2)sc1C(=O)c1c(F)cccc1F [Example D3, 1-(4-[4-Amino-5-(2,6-difluoro-benzoyl)-thiazol-2-ylamino}-piperidin-1-yl)-3-piperidin-1-yl-propan-1-one] | > 5000 | – | 71 | 400 | – | – | – | – | –
Nc1nc(NC2CCN(S(=O)(=O)c3ccc(-c4c[nH]cn4)cc3)CC2)sc1C(=O)c1c(F)cccc1F [Example F30, 1-(4-Amino-2-{1-[4-(1H-imidazol-4-y)-benzenesulfonyl]-piperidin-4-ylamino}-thiazol-5-yl)-1-(2,6-difluoro-phenyl)-methanone Trifluoroacetic Acid Salt] | 170 | 1700 | 0.32 | 0.25 | – | – | – | – | –
Nc1nc(NC2CCN(Cc3ccccn3)CC2)sc1C(=O)c1c(F)cccc1F [Example M1, 1-[4-Amino-2-(1-pyridin-2-ylmethyl-piperidin-4-ylamino)-thiazol-5-yl]-1-(2,6-difluoro-phenyl)-methanone] | 2800 | 5000 | 240 | > 500 | – | – | – | – | –

Second part, led by results:

IC50 ([1]; first HCT-116 column (c4)) [nM] | IC50 ([1]; second HCT-116 column (c5)) [nM] | Ki [2] [nM] | Ki [3] [nM] | CDK4 % Inhibition at 0.03 μM ([2]; at 0.03 μM) [%] | CDK2 % Inhibition at 0.03 μM ([3]; at 0.03 μM) [%] | Structure (SMILES) | HCT-116 % Inhibition at 0.1 μM ([1]; HCT-116 cells, at 0.1 μM) [%] | HCT-116 5 Inhibition at 0.25 μM ([1]; HCT-116 cells) | also measured
– | – | – | – | 23 | −10 | Nc1nc(NC2CCN(C(=O)COc3cc(Cl)c(Cl)cc3Cl)CC2)sc1C(=O)c1c(F)cccc1F [Example R12] | 0 | 48 | –
– | – | – | – | 37 | 17 | CCCC(CCC)C(=O)N1CCC(Nc2nc(N)c(C(=O)c3c(F)cccc3F)s2)CC1 [Example R166] | 0 | 44 | –
– | – | – | – | 16 | −6 | COC(C(=O)N1CCC(Nc2nc(N)c(C(=O)c3c(F)cccc3F)s2)CC1)(c1ccccc1)C(F)(F)F (centres unmarked) [Example R39] | 5 | 51 | –
– | – | – | – | 85 | 59 | Nc1nc(NC2CCN(C(=O)c3ccc(Cl)nc3)CC2)sc1C(=O)c1c(F)cccc1F [Example R20] | 0 | 42 | –
– | – | – | – | 17 | 13 | Nc1nc(NC2CCN(C(=O)CCC3CCCC3)CC2)sc1C(=O)c1c(F)cccc1F [Example R97] | 0 | 39 | –
– | – | – | – | 58 | 42 | Cc1ccc(C(=O)N2CCC(Nc3nc(N)c(C(=O)c4c(F)cccc4F)s3)CC2)cc1F [Example R131] | 1 | 44 | –
– | – | – | – | 62 | 40 | CSc1ccc(C(=O)N2CCC(Nc3nc(N)c(C(=O)c4c(F)cccc4F)s3)CC2)cc1 [Example R150] | 2 | 39 | –
